The data set in a line: Solubility in cocoa butter/lecithin mixtures. In kind it is physicochemical. To be noted: oil or lipid.

One molecule from patent US6719996B2, “Galenic composition for low bioavailability medicaments” (Hoffmann-La Roche Inc., priority 2000, dated 2004) can be followed below.

One may read the solubility as the concentration that dissolves in the medium under given conditions. In the case of `Cc1ccccc1-c1cc(N2CCOCC2)ncc1N(C)C(=O)C(C)(C)c1cc(C(F)(F)F)cc(C(F)(F)F)c1` [2-(3,5-bis-trifluoromethyl-phenyl)-N-methyl-N-(6-morpholin-4-yl-4-o-tolyl-pyridin-3-yl)-isobutyramide], the solubility is less than 15 mg/mL.
